Molecular target: T1, AT1 receptors (Homo sapiens, UniProt P30556)
T1 construct: host or cells: HEK293
T1 sequence (P30556 1-359): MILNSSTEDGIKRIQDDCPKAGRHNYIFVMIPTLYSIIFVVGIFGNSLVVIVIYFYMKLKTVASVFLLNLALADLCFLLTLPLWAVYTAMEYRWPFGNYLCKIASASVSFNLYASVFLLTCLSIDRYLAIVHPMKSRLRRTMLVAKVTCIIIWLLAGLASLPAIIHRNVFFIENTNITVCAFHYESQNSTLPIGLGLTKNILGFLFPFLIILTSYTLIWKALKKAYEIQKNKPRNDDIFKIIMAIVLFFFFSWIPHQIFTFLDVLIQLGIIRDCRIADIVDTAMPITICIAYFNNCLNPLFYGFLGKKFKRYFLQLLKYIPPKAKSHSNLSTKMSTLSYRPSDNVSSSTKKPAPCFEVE
Assay: effect on calcium current in cells stably expressing AT1 receptors (HEK293-AT1, FLIPR, antagonist)
Format: cell-based
Conditions: 11 concentration points 10 uM to 0.17 nM
Text: Test example 1. Determination of the effect of the compounds of the present invention on calcium current in cells stably expressing AT1 receptors 1. Experimental objective: To test the antagonistic effect of compounds on HEK293-AT1 cell activity 2. Experimental instruments and reagents: 2.1 Instruments: • 384-well assay plate (Corning: 3764); • 384-well Echo compound plate (Labcyte: LP-0200); • 384-well compound plate (PE: 6008590); • Bravo Tip (Agilent: 10734-202); • FLIPR Tip (Molecular Device: 9000-0764); • Plate reader FLIPR Tetra (Molecular Device); • Pipetting workstation Bravo (Agilent); • ECHO 550 (LABCYTE); • Liquid injector Multidrop Combi (ThermoFisher). […] Experimental data processing method: FLIPR Tetra was used to read and collect the fluorescence signal value (RFU). The maximum RFU value was used to calculate the percent activation data based on the readings of the Low control (DMSO control) and High control (100 nM positive compound) experimental groups {% activation rate = (RFUsample - RFUlow control) / (RFUhigh control - RFUlow control)×100}. […]

Compound | IC50
[2H]C([2H])(c1ccc(-c2ccccc2S(=O)(=O)Nc2noc(C)c2Cl)c(COCC)c1)N1C(=O)C2(CCCC2)N=C1CCCC [Example 2, 4'-((2-Butyl-4-oxo-1,3-diazaspiro[4.4]non-1-en-3-yl)methyl-d2)-N-(4-chloro-5-methylisoxazol-3-yl)-2'-(ethoxymethyl)-[1,1'-biphenyl]-2-sulfonamide] | 6.2 nM
CCCCC1=NC2(CCCC2)C(=O)N1Cc1ccc(-c2ccccc2S(=O)(=O)Nc2noc(C)c2Cl)c(COCC)c1 [Example 8, 2-[4-[(2-Butyl-4-oxo-1,3-diazaspiro[4.4]non-1-en-3-yl)methyl]-2-(ethoxymethyl)phenyl]-N-(4-chloro-5-methyl-isoxazol-3-yl)benzenesulfonamide] | 3.2 nM
